Reference: patent US20260274892A1, “MACROCYCLIC BROAD SPECTRUM ANTIBIOTICS” (RQx Pharmaceuticals, Inc., priority 2017, published 2026)

tested on: Escherichia coli ATCC 25922; assay: Minimum inhibitory concentration (MIC), CLSI broth micro-dilution, E. coli; assay type: cell-based; settings: Escherichia coli, ATCC25922, 22 h, Table 7, cation adjusted Mueller Hinton Broth + 0.002% Tween-80, 35° C.
Method in brief: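 Colonies grown 20 h at 35° C on Trypticase Soy agar (MRSA) or Luria agar (E. coli) were suspended in cation-adjusted Mueller Hinton broth with 0.002% Tween-80. Suspensions were added at OD600 0.0005 to 10-point twofold compound dilutions, then incubated 22 h at 35° C.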

SMILES | MIC [µM]
Cc1nc(-c2ccc(OC3CCCCC3)cc2)nc(C)c1C(=O)N[C@@H](CCNS(N)(=O)=O)C(=O)N(C)[C@@H]1C(=O)N[C@@H](C)C(=O)N[C@H](C(=O)NCC#N)Cc2ccc(O)c(c2)-c2cc1ccc2OCCN (racemic) [Compound 615, rac-(8S,11S,14S)-18-(2-aminoethoxy)-N-(cyanomethyl)-3-hydroxy-11-methyl-14-[methyl-[rac-(2S)-2-[[2-[4-(cyclohexoxy)phenyl]-4,6-dimethyl-pyrimidine-5-carbonyl]amino]-4-(sulfamoylamino)butanoyl]amino]-10,13-dioxo-9,12-diazatricyclo[13.3.1.12,6]icosa-1(18),2(20),3,5,15(19),16-hexaene-8-carboxamide] | 1
Cc1nc(-c2ccc(OC3CCCCC3)cc2)nc(C)c1C(=O)N[C@@H](CNS(N)(=O)=O)C(=O)N(C)[C@@H]1C(=O)N[C@@H](C)C(=O)N[C@H](C(=O)NCC#N)Cc2ccc(OCCN)c(c2)-c2cc1ccc2O (racemic) [Compound 616, rac-(8S,11S,14S)-3-(2-aminoethoxy)-N-(cyanomethyl)-18-hydroxy-11-methyl-14-[methyl-[rac-(2S)-2-[[2-[4-(cyclohexoxy)phenyl]-4,6-dimethyl-pyrimidine-5-carbonyl]amino]-3-(sulfamoylamino)propanoyl]amino]-10,13-dioxo-9,12-diazatricyclo[13.3.1.12,6]icosa-1(18),2(20),3,5,15(19),16-hexaene-8-carboxamide] | 0.5
Cc1nc(-c2ccc(C(C)(C)C)cc2)nc(C)c1C(=O)N[C@@H](CCN)C(=O)N(C)[C@@H]1C(=O)N[C@@H](C)C(=O)N[C@H](C(=O)NCC#N)Cc2ccc(OCCN)c(c2)-c2cc1cc(NC(N)=O)c2O (racemic) [Compound 621, rac-(8S,11S,14S)-3-(2-aminoethoxy)-N-(cyanomethyl)-18-hydroxy-11-methyl-14-[methyl-[rac-(2S)-4-amino-2-[[2-(4-tert-butylphenyl)-4,6-dimethyl-pyrimidine-5-carbonyl]amino]butanoyl]amino]-10,13-dioxo-17-ureido-9,12-diazatricyclo[13.3.1.12,6]icosa-1(18),2(20),3,5,15(19),16-hexaene-8-carboxamide] | 0.25

The next lines start with the values.

MIC [µM] | SMILES
0.19 | Cc1nc(-c2ccc(C(C)(C)C)cc2)nc(C)c1C(=O)N[C@@H](CCN)C(=O)N(C)[C@@H]1C(=O)N[C@@H](C)C(=O)N[C@H](C(=O)NCC#N)Cc2ccc(OCC(CN)CN)c(c2)-c2cc1ccc2O (racemic) [Compound 610, rac-(8S,11S,14S)-3-[3-amino-2-(aminomethyl)propoxy]-N-(cyanomethyl)-18-hydroxy-11-methyl-14-[methyl-[rac-(2S)-4-amino-2-[[2-(4-tert-butylphenyl)-4,6-dimethyl-pyrimidine-5-carbonyl]amino]butanoyl]amino]-10,13-dioxo-9,12-diazatricyclo[13.3.1.12,6]icosa-1(18),2(20),3,5,15(19),16-hexaene-8-carboxamide]
0.19 | Cc1nc(-c2ccc(C(C)(C)C)cc2)nc(C)c1C(=O)N[C@@H](CCN)C(=O)N(C)[C@@H]1C(=O)N[C@@H](C)C(=O)N[C@H](C(=O)NCC#N)Cc2ccc(O)c(c2)-c2cc1ccc2OCC(CN)CN (racemic) [Compound 611, rac-(8S,11S,14S)-18-[3-amino-2-(aminomethyl)propoxy]-N-(cyanomethyl)-3-hydroxy-11-methyl-14-[methyl-[rac-(2S)-4-amino-2-[[2-(4-tert-butylphenyl)-4,6-dimethyl-pyrimidine-5-carbonyl]amino]butanoyl]amino]-10,13-dioxo-9,12-diazatricyclo[13.3.1.12,6]icosa-1(18),2(20),3,5,15(19),16-hexaene-8-carboxamide]
0.25 | Cc1nc(-c2ccc(C(C)(C)C)cc2)nc(C)c1C(=O)N[C@@H](CCN)C(=O)N(C)[C@@H]1C(=O)N[C@@H](C)C(=O)N[C@H](C(=O)NCC#N)Cc2ccc(OC[C@H](N)CO)c(c2)-c2cc1ccc2O (racemic) [Compound 612, rac-(8S,11S,14S)-N-(cyanomethyl)-18-hydroxy-11-methyl-14-[methyl-[rac-(2S)-4-amino-2-[[2-(4-tert-butylphenyl)-4,6-dimethyl-pyrimidine-5-carbonyl]amino]butanoyl]amino]-10,13-dioxo-3-[rac-(2R)-2-amino-3-hydroxy-propoxy]-9,12-diazatricyclo[13.3.1.12,6]icosa-1(18),2(20),3,5,15(19),16-hexaene-8-carboxamide]
0.75 | Cc1nc(-c2ccc(C(C)(C)C)cc2)nc(C)c1C(=O)N[C@@H](CCN)C(=O)N(C)[C@@H]1C(=O)N[C@@H](C)C(=O)N[C@H](C(=O)NCC#N)Cc2ccc(OC[C@@H](N)CO)c(c2)-c2cc1ccc2O (racemic) [Compound 613, rac-(8S,11S,14S)-N-(cyanomethyl)-18-hydroxy-11-methyl-14-[methyl-[rac-(2S)-4-amino-2-[[2-(4-tert-butylphenyl)-4,6-dimethyl-pyrimidine-5-carbonyl]amino]butanoyl]amino]-10,13-dioxo-3-[rac-(2S)-2-amino-3-hydroxy-propoxy]-9,12-diazatricyclo[13.3.1.12,6]icosa-1(18),2(20),3,5,15(19),16-hexaene-8-carboxamide]
0.19 | Cc1nc(-c2ccc(C(C)(C)C)cc2)nc(C)c1C(=O)N[C@@H](CCN)C(=O)N(C)[C@@H]1C(=O)N[C@@H](C)C(=O)N[C@H](C(=O)NCC#N)Cc2ccc(O)c(c2)-c2cc1ccc2OC[C@H](O)CN (racemic) [Compound 617, rac-(8S,11S,14S)-N-(cyanomethyl)-3-hydroxy-11-methyl-14-[methyl-[rac-(2S)-4-amino-2-[[2-(4-tert-butylphenyl)-4,6-dimethyl-pyrimidine-5-carbonyl]amino]butanoyl]amino]-10,13-dioxo-18-[rac-(2R)-3-amino-2-hydroxy-propoxy]-9,12-diazatricyclo[13.3.1.12,6]icosa-1(18),2(20),3,5,15(19),16-hexaene-8-carboxamide]

same assay, conditions: Escherichia coli, ATCC25922, Table 7, cation adjusted Mueller Hinton Broth + 0.002% Tween-80, 35° C., 22 hours

SMILES | MIC [µM]
Cc1nc(-c2ccc(C(C)(C)C)cc2)nc(C)c1C(=O)N[C@@H](CCN)C(=O)N(C)[C@@H]1C(=O)N[C@@H](C)C(=O)N[C@H](C(=O)NCC#N)Cc2ccc(OC[C@H](O)CN)c(c2)-c2cc1ccc2O (racemic) [Compound 614, rac-(8S,11S,14S)-N-(cyanomethyl)-18-hydroxy-11-methyl-14-[methyl-[rac-(2S)-4-amino-2-[[2-(4-tert-butylphenyl)-4,6-dimethyl-pyrimidine-5-carbonyl]amino]butanoyl]amino]-10,13-dioxo-3-[rac-(2R)-3-amino-2-hydroxy-propoxy]-9,12-diazatricyclo[13.3.1.12,6]icosa-1(18),2(20),3,5,15(19),16-hexaene-8-carboxamide] | 0.19
Cc1nc(-c2ccc(C(C)(C)C)cc2)nc(C)c1C(=O)N[C@@H](CCN)C(=O)N(C)[C@@H]1C(=O)N[C@@H](C)C(=O)N[C@H](C(=O)NCC#N)Cc2cc(NC(N)=O)c(O)c(c2)-c2cc1ccc2OCCN (racemic) [Compound 618, rac-(8S,11S,14S)-18-(2-aminoethoxy)-N-(cyanomethyl)-3-hydroxy-11-methyl-14-[methyl-[rac-(2S)-4-amino-2-[[2-(4-tert-butylphenyl)-4,6-dimethyl-pyrimidine-5-carbonyl]amino]butanoyl]amino]-10,13-dioxo-4-ureido-9,12-diazatricyclo[13.3.1.12,6]icosa-1(18),2(20),3,5,15(19),16-hexaene-8-carboxamide] | 0.19
Cc1nc(-c2ccc(C(C)(C)C)cc2)nc(C)c1C(=O)N[C@@H](CCN)C(=O)N(C)[C@@H]1C(=O)N[C@@H](C)C(=O)N[C@H](C(=O)NCC#N)Cc2cc(NC(N)=O)c(OCCN)c(c2)-c2cc1ccc2OCCN (racemic) [Compound 619, rac-(8S,11S,14S)-3,18-bis(2-aminoethoxy)-N-(cyanomethyl)-11-methyl-14-[methyl-[rac-(2S)-4-amino-2-[[2-(4-tert-butylphenyl)-4,6-dimethyl-pyrimidine-5-carbonyl]amino]butanoyl]amino]-10,13-dioxo-4-ureido-9,12-diazatricyclo[13.3.1.12,6]icosa-1(18),2(20),3,5,15(19),16-hexaene-8-carboxamide] | 0.13
CC(=O)Nc1cc2cc(c1O)-c1cc(ccc1OCCN)C[C@@H](C(=O)NCC#N)NC(=O)[C@H](C)NC(=O)[C@H]2N(C)C(=O)[C@H](CCN)NC(=O)c1c(C)nc(-c2ccc(C(C)(C)C)cc2)nc1C (racemic) [Compound 620, rac-(8S,11S,14S)-17-acetamido-3-(2-aminoethoxy)-N-(cyanomethyl)-18-hydroxy-11-methyl-14-[methyl-[rac-(2S)-4-amino-2-[[2-(4-tert-butylphenyl)-4,6-dimethyl-pyrimidine-5-carbonyl]amino]butanoyl]amino]-10,13-dioxo-9,12-diazatricyclo[13.3.1.12,6]icosa-1(18),2(20),3,5,15(19),16-hexaene-8-carboxamide] | 0.5
Cc1nc(-c2ccc(C(C)(C)C)cc2)nc(C)c1C(=O)N[C@@H](CCN)C(=O)N(C)[C@@H]1C(=O)N[C@@H](C)C(=O)N[C@H](C(=O)NCC#N)Cc2ccc(OCCN)c(c2)-c2cc1cc(NC(N)=O)c2OCCN (racemic) [Compound 622, rac-(8S,11S,14S)-3,18-bis(2-aminoethoxy)-N-(cyanomethyl)-11-methyl-14-[methyl-[rac-(2S)-4-amino-2-[[2-(4-tert-butylphenyl)-4,6-dimethyl-pyrimidine-5-carbonyl]amino]butanoyl]amino]-10,13-dioxo-17-ureido-9,12-diazatricyclo[13.3.1.12,6]icosa-1(18),2(20),3,5,15(19),16-hexaene-8-carboxamide] | 0.5
